Several values for one entry are separate records, joined by “and”; a condition that tells them apart may be missing. Equal entries are not always repeated. Where two headings read alike, the source gives them in different places.
Assays:
[1] = biological target: GSK-3α/β; assay: GSK-3α/β kinase assay; format: biochemical, porcine; conditions: read-out: Inhibition of GSK3beta, IC50
Method: (§1) Blank values were subtracted and activities expressed in % of the maximal activity, i.e. in the absence of inhibitors. Controls were performed with appropriate dilutions of dimethylsulfoxide.

[2] = biological target: T1, CDK5/p25 (Homo sapiens, UniProt Q00535); assay: CDK5/p25 kinase assay; format: biochemical; conditions: read-out: Inhibition of CDK5/p25, IC50
T1 construct: made in house
T1 sequence (Q00535 whole entry): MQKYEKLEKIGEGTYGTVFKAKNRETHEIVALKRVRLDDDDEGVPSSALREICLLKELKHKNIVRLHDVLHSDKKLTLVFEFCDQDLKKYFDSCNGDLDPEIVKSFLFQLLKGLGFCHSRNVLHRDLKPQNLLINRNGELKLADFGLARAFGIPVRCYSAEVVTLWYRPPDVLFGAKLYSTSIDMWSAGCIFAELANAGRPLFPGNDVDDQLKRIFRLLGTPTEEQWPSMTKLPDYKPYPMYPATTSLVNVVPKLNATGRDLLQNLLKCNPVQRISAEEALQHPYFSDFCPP
T1 sequence (Q15078 99-307 partner limits assumed): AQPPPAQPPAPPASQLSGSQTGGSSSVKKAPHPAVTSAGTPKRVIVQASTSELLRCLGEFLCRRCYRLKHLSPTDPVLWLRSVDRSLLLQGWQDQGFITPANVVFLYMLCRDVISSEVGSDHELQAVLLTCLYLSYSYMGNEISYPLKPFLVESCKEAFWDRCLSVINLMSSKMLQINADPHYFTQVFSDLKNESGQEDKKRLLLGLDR
Method: (§2) Controls were performed with appropriate dilutions of dimethylsulfoxide.
(§3) ATP (3,000 Ci/mmol; 10 mCi/ml) in a final volume of 30 μl. After 30 min. incubation at 30° C., 25 μl aliquots of supernatant were spotted onto 2.5×3 cm pieces of Whatman P81 phosphocellulose paper, and, 20 sec. later, the filters were washed five times (for at least 5 min. each time) in a solution of 10 ml phosphoric acid/liter of water. The wet filters were counted in the presence of 1 ml ACS (Amersham) scintillation fluid.

[3] = test system: SH-SY5Y human neuroblastoma cells; assay: Cell survival (MTS assay), SH-SY5Y; format: cell-based; conditions: read-out: Inhibition of the tumor cell-line SHSY-5Y, IC50
Method: SH-SY5Y human neuroblastoma cells were grown in DMEM medium (Invitrogen, Cergy Pontoise, France). […] Human foreskin primary fibroblasts (kindly provided by Dr. Gilles Ponzio) were grown in DMEM supplemented with 2 mM L-glutamine and 20 mM HEPES. All the media were supplemented with antibiotics (penicillin-streptomycin) from Lonza and 10% volume of FCS from Invitrogen. Cells were cultured at 37° C. with 5% CO2. Drug treatments were performed on exponentially growing cultures at the indicated time and concentrations. Control experiments were carried out using appropriate dilutions of DMSO. MDCK cell-lines were used to test compounds PKD.

[4] = biological target: T2, CDK2/cyclin A (Homo sapiens, UniProt P24941); assay: CDK2/cyclin A kinase assay; format: biochemical; conditions: unit inferred; read-out: Inhibition of CDK2/cyclin A, IC50
T2 construct: made in house; host or cells: insect cells
Method: as §1
CDK2/cyclin A (human, recombinant, expressed in insect cells) was assayed as described for CDK1/cyclin B.

[5] = biological target: CDK1/cyclin B; assay: CDK1/cyclin B kinase assay; format: biochemical, starfish; conditions: read-out: Inhibition of CDK1/cyclin B, IC50
Method: as §2, §3

[6] = biological target: CK1δ/ε; assay: CK1 kinase assay; format: biochemical, porcine; conditions: read-out: Inhibition of CK1, IC50
Method: as §1

[7] = biological target: DYRK1A (Homo sapiens, UniProt Q13627); assay: DYRK1A kinase assay; format: biochemical; conditions: read-out: Inhibition of DYRK1A, IC50
Method: as §1
The compounds were tested at various concentrations in the kinase assays, as described in the Methods section.

SMILES | IC50 [1] | IC50 [2] | IC50 [3] | IC50 [4] | IC50 [5] | IC50 [6] | IC50 ([2]; unit inferred) | IC50 [7]
CC(C)n1cnc2c(NCc3ccc(-c4ccccn4)cc3)cc(NC[C@H](O)CO)nc21 [Ik, (2S)-3-[[3-isopropyl-7-[[4-(2-pyridyl)phenyl]methylamino]imidazo[4,5-b]pyridin-5-yl]amino]propane-1,2-diol] | > 10 µM | 0.17 µM | 0.18 µM | 0.12 µM | 0.2 µM | 0.38 µM | – | –
CC[C@@H](CO)Nc1cc(NCc2ccc(-c3ccccc3)cc2)c2ncn(C(C)C)c2n1 [Il, (2S)-2-[[3-isopropyl-7-[(4-phenylphenyl)methylamino]imidazo[4,5-b]pyridin-5-yl]amino]butan-1-ol] | > 10 µM | – | – | – | – | 2 µM | 0.6 µM | 4.5 µM
CC[C@H](CO)Nc1cc(NCc2ccc(-c3ccccc3)cc2)c2ncn(C(C)C)c2n1 [Im, (R) 2-[[3-isopropyl-7-[(4-phenylphenyl)methylamino]imidazo[4,5-b]pyridin-5-yl]amino]butan-1-ol] | – | 0.81 µM | – | – | – | 1.2 µM | – | –
CC[C@@H](N)COc1cc(NCc2ccc(-c3ccccc3)cc2)c2ncn(C(C)C)c2n1 [In, (R)-5-(2-aminobutoxy)-3-isopropyl-N-[(4-phenylphenyl)methyl]imidazo[4,5-b]pyridine-7-amine] | 7 µM | 0.55 µM | – | – | – | 0.12 µM | – | 4 µM
CC[C@H](N)COc1cc(NCc2ccc(-c3ccccc3)cc2)c2ncn(C(C)C)c2n1 [Ip, (S)-5-(2-aminobutoxy)-3-isopropyl-N-[(4-phenylphenyl)methyl]imidazo[4,5-b]pyridin-7-amine] | 7 µM | – | – | – | – | 0.22 µM | – | 3.3 µM
CC(C)n1cnc2c(NCc3ccc(-c4ccccn4)cc3)cc(NC(CO)CO)nc21 [Perharidine E, 3-Iso-Propyl-5-(1,3-dihydroxypropylamino)-7-[4-(2-pyridyl)-benzylamino]-imidazo[4,5-b]pyridine] | – | 0.34 µM and 0.35 µM | – | – | – | 0.28 µM | – | –
